Experimental data as given in patent US9248202B2, “Two-photon probe for detecting copper(II) ion and quantitative estimation of copper(II) ion in human tissue using the same” (Korea University Research and Business Foundation, priority 2014, dated 2016).
In brackets after ≈: the same amount, converted by molar mass.

Assays:
[1] = Solubility in HEPES buffer by fluorescence method; assay type: physicochemical; details: aqueous buffer; HEPES buffer ([HEPES]=20 mM, pH 7.0)
Procedure: (hereinafter, ‘ACCu2’), a compound of [Chemical Formula 12] (hereinafter, ‘FL’) and a compound of [Chemical Formula 13] (hereinafter, ‘IR’) in 1,4-dioxane, DMF, ethanol, EtOH/HEPES (9:1) and HEPES buffer ([HEPES]=20 mM, pH 7.0). Excitation wavelength was 420 nm. The solubility of ACCu2 in HEPES buffer ([HEPES]=20 mM, pH 7.0) as determined by the fluorescence method described in the literature (Kim, H. M.; Choo, H. J.; Jung, S. Y.; Ko, Y. G.; Park, W. H.; Jeon, S. J.; Kim, C. H.; Joo, T. H.; Cho, B. R. Chem Bio Chem 2007, 8, 553) was 8.0 μM, which was sufficient to stain cells.

HeLa cells = test: Photostability in labeled HeLa cells; assay type: cell-based, human; parameters: dose or concentration left out as unconfirmed; details: ACCu2-labeled HeLa cells, fs-pulses for 60 minutes
Procedure: The photostability of ACCu2 was determined by monitoring the change in TP excited fluorescence (TPEF) intensity from ACCu2 ([…])-labeled HeLa cells. […] This confirms that ACCu2 according to the present disclosure has high photostability and can measure the copper(II) ion concentration in living cells with minimum interference.

solubility [1]: 8 µM (≈ 6.96 µg/mL)
photostability: TPEF intensity after continuous radiation (HeLa cells): remained nearly the same
SMILES: COCCOCCOCCOc1ccc2c(ccc3cc(C(=O)N4CCN(C(=O)c5ccc(CNC(=O)c6cc7cc8ccc(N(C)C)cc8cc7oc6=O)nc5)CC4)c(=O)oc32)c1 [ACCu2]
